assay: recombinant barcode read abundance after kanamycin selection (control-corrected) (log10(CPM+1)); higher = more efficient recombination; sequences stand for … in AGTGCAGAGAAAATCGGCCAGTTTTCTCTGCCTGCAGTCCGCATGCCGT…AGATTTATGCAGCGGACTGCCTTTCTCCCAAAGTGATAAACCGGACAGTATCATGGACCGGTTTTCCCGGTAATCCGTATTTGCAAGGTTGGTTTCACT; site = the 11-nt target
Procedure, shortened: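 IS621 bridge RNA target-binding loops were paired with targets in a pooled library tested in E. coli. After co-electroporation with a donor plasmid, cells were plated in two replicates on chloramphenicol/ampicillin LB agar (control) and on chloramphenicol/ampicillin/kanamycin carrying 0.1 mM IPTG. Barcodes at recombinant junctions were counted as counts per million, averaged and control-corrected to give recombination efficiency. Values are log10(CPM+1).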
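Further: IS621 recombinase and bridge RNA in Escherichia coli cells.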

Sequence | recombinant barcode read abundance (log10)
CCGTGGCCTTGGGTTCTAACCTGTTGCTT (site CCGTGGCCTAA) | 0.176
CCGTGTCCTTGGGTTCTAACCTGTTGCCG (site CCGTGTCCTCG) | 1.32
CCGTGTCCTTGGGTTCTAACCTGTTGCCG (site GCGTGTCCTTG) | 0
CCGTTATCTTGGGTTCTAACCTGTTGCCT (site CCGATATCTAG) | 0.0227
CCGTTATCTTGGGTTCTAACCTGTTGCCT (site CCGCTATCTAG) | 0
CCGTTATCTTGGGTTCTAACCTGTTGCCT (site CCGGTATCTAG) | 0.0837
CCGTTATCTTGGGTTCTAACCTGTTGCCT (site CCGTTATCTAG) | 0.0274
CCTAACGCTTGGGTTCTAACCTGTTGCCT (site CCTAACGCTAG) | 0.625
CCTAACGCTTGGGTTCTAACCTGTTGCCT (site CCTCGCGCTAG) | 0.0688
CCTAAGACTTGGGTTCTAACCTGTTGCCC (site CCTAAGACTAG) | 0.23
CCTAAGACTTGGGTTCTAACCTGTTGCCC (site CCTAAGACTCG) | 0.0665
CCTAAGACTTGGGTTCTAACCTGTTGCCC (site CCTAAGACTGG) | 0.16
CCTAAGACTTGGGTTCTAACCTGTTGCCC (site CCTAAGACTTG) | 0.0914
CCTAAGCCTTGGGTTCTAACCTGTTGCGT (site CCTAAACCTAC) | 1.23
CCTAAGCCTTGGGTTCTAACCTGTTGCGT (site CCTAACCCTAC) | 0.977
CCTAAGCCTTGGGTTCTAACCTGTTGCGT (site CCTAAGCCTAC) | 1.21
CCTAAGCCTTGGGTTCTAACCTGTTGCGT (site CCTAATCCTAC) | 0.161
CCTAAGCCTTGGGTTCTAACCTGTTGCTG (site CCTAAGCCTCA) | 0.473
CCTAAGCCTTGGGTTCTAACCTGTTGCTG (site TACCCTTCTAC) | 0.141
CCTAATACTTGGGTTCTAACCTGTTGCGT (site CCTAATACTAC) | 0.988
CCTAATACTTGGGTTCTAACCTGTTGCGT (site CCTTAGACTAC) | 0.0351
CCTAATCCTTGGGTTCTAACCTGTTGCGT (site CCTAAACCTAC) | 0.0528

Sequence | recombinant barcode read abundance (log10)
CCTAATCCTTGGGTTCTAACCTGTTGCGT (site CCTAACCCTAC) | 0.295
CCTAATCCTTGGGTTCTAACCTGTTGCGT (site CCTAAGCCTAC) | 0.22
CCTAATCCTTGGGTTCTAACCTGTTGCGT (site CCTAATCCTAC) | 1.1
CCTACAACTTGGGTTCTAACCTGTTGCCT (site CCTACAACTAG) | 0.313
CCTACAACTTGGGTTCTAACCTGTTGCCT (site CCTACACCTAG) | 0.0313
CCTACAACTTGGGTTCTAACCTGTTGCCT (site CCTACAGCTAG) | 0.138
CCTACAACTTGGGTTCTAACCTGTTGCCT (site CCTACATCTAG) | 0.227
CCTACAGCTTGGGTTCTAACCTGTTGCCT (site CCTACAACTAG) | 0.363
CCTACAGCTTGGGTTCTAACCTGTTGCCT (site CCTACACCTAG) | 0.37
CCTACAGCTTGGGTTCTAACCTGTTGCCT (site CCTACAGCTAG) | 0.532
CCTACAGCTTGGGTTCTAACCTGTTGCCT (site CCTACATCTAG) | 0.0747
CCTACATCTTGGGTTCTAACCTGTTGCTA (site CCTACATCTAT) | 0.177
CCTACATCTTGGGTTCTAACCTGTTGCTA (site CCTACATCTTA) | 0.0332
CCTACGCCTTGGGTTCTAACCTGTTGCCA (site CCTACGCCTTG) | 0.842
CCTACGCCTTGGGTTCTAACCTGTTGCCA (site TTCCGAGCTCT) | 0
CCTACTACTTGGGTTCTAACCTGTTGCCG (site CCTACTACTCG) | 0.0812
CCTACTACTTGGGTTCTAACCTGTTGCCG (site CCTACTCCTCT) | 0.0358
CCTACTCCTTGGGTTCTAACCTGTTGCCT (site CCTACTCCTAG) | 0.281
CCTACTCCTTGGGTTCTAACCTGTTGCCT (site CCTGCTCCTAA) | 0.0634
CCTAGAGCTTGGGTTCTAACCTGTTGCCT (site CCTAGAACTAG) | 0.097
CCTAGAGCTTGGGTTCTAACCTGTTGCCT (site CCTAGACCTAG) | 0.241
CCTAGAGCTTGGGTTCTAACCTGTTGCCT (site CCTAGAGCTAG) | 0.694

Sequence | recombinant barcode read abundance (log10)
CCTAGAGCTTGGGTTCTAACCTGTTGCCT (site CCTAGATCTAG) | 0.0587
CCTAGATCTTGGGTTCTAACCTGTTGCCT (site CCTAGAACTAG) | 0.107
CCTAGATCTTGGGTTCTAACCTGTTGCCT (site CCTAGACCTAG) | 0.141
CCTAGATCTTGGGTTCTAACCTGTTGCCT (site CCTAGAGCTAG) | 0.0181
CCTAGATCTTGGGTTCTAACCTGTTGCCT (site CCTAGATCTAG) | 0.372
CCTATGTCTTGGGTTCTAACCTGTTGCTA (site ACTATGTCTTG) | 0.0985
CCTATGTCTTGGGTTCTAACCTGTTGCTA (site CCTATGTCTTA) | 0.528
CCTCCCTCTTGGGTTCTAACCTGTTGCTA (site CCTCCCTCTCA) | 0.481
CCTCCCTCTTGGGTTCTAACCTGTTGCTA (site CCTCCCTCTTA) | 1.84
CCTGACACTTGGGTTCTAACCTGTTGCGG (site CCTGACACTCC) | 1.66
CCTGACACTTGGGTTCTAACCTGTTGCGG (site CCTTACACTCC) | 0.232
CCTGGGACTTGGGTTCTAACCTGTTGCGC (site CCTGGGACTAC) | 0.684
CCTGGGACTTGGGTTCTAACCTGTTGCGC (site CCTGGGACTCC) | 0.347
CCTGGGACTTGGGTTCTAACCTGTTGCGC (site CCTGGGACTGC) | 1.24
CCTGGGACTTGGGTTCTAACCTGTTGCGC (site CCTGGGACTTC) | 0.214
CCTGGGACTTGGGTTCTAACCTGTTGCGG (site CCTGGGACTAC) | 0
CCTGGGACTTGGGTTCTAACCTGTTGCGG (site CCTGGGACTCC) | 2.29
CCTGGGACTTGGGTTCTAACCTGTTGCGG (site CCTGGGACTGC) | 0.532
CCTGGGACTTGGGTTCTAACCTGTTGCGG (site CCTGGGACTTC) | 0.474
CCTGGGACTTGGGTTCTAACCTGTTGCGT (site CCTGGGACTAC) | 1.31
CCTGGGACTTGGGTTCTAACCTGTTGCGT (site CCTGGGACTCC) | 0.807
CCTGGGACTTGGGTTCTAACCTGTTGCGT (site CCTGGGACTGC) | 0.178

Sequence | recombinant barcode read abundance (log10)
CCTGGGACTTGGGTTCTAACCTGTTGCGT (site CCTGGGACTTC) | 0.0691
CCTGTAGCTTGGGTTCTAACCTGTTGCCT (site CCGGTAACTAG) | 0.0829
CCTGTAGCTTGGGTTCTAACCTGTTGCCT (site CCTGTAGCTAG) | 1.13
CCTTAGCCTTGGGTTCTAACCTGTTGCCT (site CCTTACCCTAG) | 0.0511
CCTTAGCCTTGGGTTCTAACCTGTTGCCT (site CCTTAGCCTAG) | 0.385
CCTTCTACTTGGGTTCTAACCTGTTGCTA (site CCTTCTACTAG) | 0.0484
CCTTCTACTTGGGTTCTAACCTGTTGCTA (site CCTTCTACTTA) | 0.392
CCTTGCTCTTGGGTTCTAACCTGTTGCCT (site CCTTGCTCTAG) | 0.317
CCTTGCTCTTGGGTTCTAACCTGTTGCCT (site CCTTGGACTAG) | 0.114
CCTTGGACTTGGGTTCTAACCTGTTGCAA (site CCTTGGACTTT) | 0.546
CCTTGGACTTGGGTTCTAACCTGTTGCAA (site GCTTGGACTCT) | 0.0226
CCTTGGTCTTGGGTTCTAACCTGTTGCCT (site CCTTGGTCTAG) | 0.216
CCTTGGTCTTGGGTTCTAACCTGTTGCCT (site GCTTGGCCTAG) | 0.107
CCTTTCACTTGGGTTCTAACCTGTTGCCT (site CCTATCCCTAG) | 0.029
CCTTTCACTTGGGTTCTAACCTGTTGCCT (site CCTTTCACTAG) | 0.228
CGAATCGCTTGGGTTCTAACCTGTTGCCT (site CGAATCACTAG) | 0.374
CGAATCGCTTGGGTTCTAACCTGTTGCCT (site CGAATCCCTAG) | 0.0216
CGAATCGCTTGGGTTCTAACCTGTTGCCT (site CGAATCGCTAG) | 0.994
CGAATCGCTTGGGTTCTAACCTGTTGCCT (site CGAATCTCTAG) | 0.084
CGAATCTCTTGGGTTCTAACCTGTTGCCT (site CGAATCACTAG) | 0.0112

Source: the supplement of paper PMC11208160
